Data as given in US10525220B2, “Droplet delivery device for delivery of fluids to the pulmonary system and methods of use” (PNEUMA RESPIRATORY, INC., priority 2016, dated 2020).
Values joined by “and” are separate entries in the source; they are usually repeats but may differ in a detail not shown here. Identical values can stand only once. Each block holds one substance with its values, some of them ahead of it.

What was measured:
Type in all cases: physicochemical
[1] = Anderson Cascade Impactor testing of Albuterol sulfate aerosol from droplet delivery device (Example B)
[2] = Size exclusion chromatography stability study after aerosol generation with test device
Text: Alternately, to determine the stability of active agent after droplet generation, the generated stream of droplets including the active agent may be collected and […] may be employed to monitor for any changes in large molecule aggregation and protein fragment content. Soluble protein aggregates and protein fragment content may be calculated by comparing respective peak area under the SEC-HPLC curve of dispensed protein solutions with controls (solutions remaining in the device reservoir). Drug solutions for testing include Enbrel, (ENBREL® single-use prefilled syringes in 25 mg (0.51 mL of a 50 mg/mL solution of etanercept), and insulin, (Humalog, 200 units/ml, 3 ml […] is performed with a YarraTM 3 um SEC-2000 LC column 300×7.8 mm, SecurityGuard cartridge kit and SecurityGuard cartridges GFC-2000, 4×3 mm ID. Fifty microliters of Enbrel from the syringe (ENBREL® single-use prefilled syringes in 25 mg/0.51 mL of a 50 mg/mL solution of etanercept) is diluted (4:1) (4 parts, 200 mcl of the mobile phase buffer solution to 1 part, 50 mcl Enbrel from syringe). Fifty microliter of the diluted Enbrel is injected and separation was performed at a flow rate of 1.0 ml/min. The mobile phase buffer system included a PHOS. BUFF. SALINE. […] UV detection is performed at 280 nm. […] Aerosol collection and SEC is performed in a similar fashion as for the Enbrel analysis and aerosol collection. […] Fifty microliters of the collected aerosol spray is injected onto the SEC column for analysis, while 50 mcl of the […] insulin solution is injected onto the SEC column for control samples.

[3] = Gravimetric analysis of delivered dose per actuation; conditions: for solution mass per dose (actuation), average of five doses: ampule weighed before and after dosing
Description: Gravimetric analysis was performed by weighing the Enbrel solution filled ampule before and after dosing. The average of five doses (actuations) were analyzed with an average of 4.25 mg+/−0.15 mg. The total delivered dose of Enbrel per actuation is therefore […] per actuation.
Gravimetric analysis was performed by weighing the Insulin solution filled ampule before and after dosing. The average of five doses (actuations) were analyzed with an average of 5.01 mg+/−0.53 mg. The total delivered dose of Insulin per actuation is therefore 34.8 mcg per actuation.

[4] = Gel electrophoresis stability of active agent after droplet generation
Text: To determine the stability of active agent after droplet generation, the generated stream of droplets including the active agent is collected and the molecular weight of the active agent is verified using gel electrophoresis.

[5] = Albuterol 0.5%, 28.3 lpm, 10 actuations
[6] = Albuterol 0.5%, 28.3 lpm, N = 30
[7] = Albuterol 0.5%, Anderson Cascade, 28.3 lpm, 10 actuations
[8] = Pre-separator, cut diam. 10 μm, Albuterol 0.5%, 28.3 lpm, 10 actuations
[9] = Enbrel aerosolized, average of S1 and S2

- Coarse Particles (>4.7 um) [1, 5]: 203.7 µg
- Coarse Particules Fraction (>4.7 um) [1, 5]: 22.7%
- Fine Particles (<0.4 um) [1, 5]: 31.0 µg
- Fine Particule Fraction (<0.4 um) [1, 5]: 3.5%
- Mouthpiece Losses [1, 5]: 12.2%
- Respirable Dose (0.4-4.7 um) [1, 5]: 621.9 µg
- Respirable Fraction (0.4-4.7 um) [1, 5]: 69.3%
- Geometric StdDev (GSD) [1, 6]: 1.96
- MMAD [1, 6]: 1.93 um
- Mouthpiece Losses [1, 7]: 109.4 µg
- droplets of an average diameter of less than about 5 μm [1, 7]: over 75%
- droplets with an average diameter of less than about 4 μm [1, 7]: over 70%
- Cum. % < ([1]; FILTER stage): 0.00%
- Cum. % > ([1]; FILTER stage): 100.00%
- Cum. % < [1, 8]: 100.00%
- Cum. % > [1, 8]: 0.00%
- Cum. % < ([1]; stage 0, cut diam. 9 μm): 88.95%
- Cum. % < ([1]; stage 1, cut diam. 5.8 μm): 76.22%
- Cum. % > ([1]; stage 1, cut diam. 5.8 μm): 23.78%
- Cum. % < ([1]; stage 2, cut diam. 4.7 μm): 71.05%
- Cum. % > ([1]; stage 2, cut diam. 4.7 μm): 28.95%
- Cum. % < ([1]; stage 3, cut diam. 3.3 μm): 64.29%
- Cum. % > ([1]; stage 3, cut diam. 3.3 μm): 35.71%
- Cum. % < ([1]; stage 4, cut diam. 2.1 μm): 52.89%
- Cum. % > ([1]; stage 4, cut diam. 2.1 μm): 47.11%
- Cum. % < ([1]; stage 5, cut diam. 1.1 μm): 21.05%
- Cum. % > ([1]; stage 5, cut diam. 1.1 μm): 78.95%
- Cum. % < ([1]; stage 6, cut diam. 0.7 μm): 8.47%
- Cum. % > ([1]; stage 6, cut diam. 0.7 μm): 91.53%
- Cum. % > ([1]; stage 7, cut diam. 0.4 μm): 96.38%
Substance: Albuterol sulfate

Substance: etanercept [Enbrel]
- Peak Area %, Peak 2 ([2]; Enbrel 10 mg/ml, aerosolized): 90.789% and 92.112%
- Peak Area %, Peak 3 ([2]; Enbrel 10 mg/ml, aerosolized): 0.424% and 0.361%
- Peak Area %, Peak 4 ([2]; Enbrel 10 mg/ml, aerosolized): 0.357% and 0.352%
- Peak Area %, Peak 5 ([2]; Enbrel 10 mg/ml, aerosolized): 5.130% and 3.428% and 5.123%
- Peak Area %, Peak 1 ([2]; Enbrel 10 mg/ml, aerosolized with test device): 2.796% and 3.476%
- Peak Area %, Peak 2 ([2]; Enbrel 10 mg/ml, control): 96.676% and 95.909%
- Peak Area %, Peak 3 ([2]; Enbrel 10 mg/ml, control): 0.373% and 0.351%
- Peak Area %, Peak 4 ([2]; Enbrel 10 mg/ml, control): 0%
- Peak Area %, Peak 5 ([2]; Enbrel 10 mg/ml, control): 0%
- Peak 4, Avg. [2, 9]: 0.3545
- Peak 5, Avg. [2, 9]: 4.2755
- Peak Area %, Peak 1 ([2]; Enbrel diluted 4:1 (10 mg/ml), control): 2.428% and 3.041%
- dose forming molecular fragments with elution times of 13 and 25 minutes ([2]; Enbrel, test device): 4.6%
- structurally unchanged after delivering an aerosol dose ([2]; Enbrel, test device): 95.4%
- total delivered dose per actuation [3]: 42.5 mcg per actuation
- solution mass per dose (actuation), average of five doses [3]: 4.25 mg
- change in electrophoretic mobility (molecular weight) of post-aerosol active agent vs control [4]: negligible change

Substance: Insulin: insulin, Humalog, 200 units/ml, 3 ml kwikpens
- Peak Area %, Peak 1 ([2]; Insulin 200 U/ml, aerosolized): 27.881% and 28.721%
- Peak Area %, Peak 2 ([2]; Insulin 200 U/ml, aerosolized): 69.780% and 67.807%
- Peak Area %, Peak 3 ([2]; Insulin 200 U/ml, aerosolized): 2.184% and 2.797%
- Peak Area %, Peak 2 ([2]; Insulin 200 U/ml, control): 69.630%
- Peak Area %, Peak 3 ([2]; Insulin 200 U/ml, control): 0%
- Peak 3, Avg. ([2]; Insulin aerosolized, average of S1 and S2): 2.4905
- Peak Area %, Peak 1 ([2]; Insulin from Kwikpen 200 U/ml, control): 29.926%
- ejected dose forming a fragment which elutes at ~25 minutes ([2]; Insulin, test device): 2.5%
- ejected dose structurally unchanged ([2]; Insulin, test device): 97.5%
- total delivered dose per actuation [3]: 34.8 mcg per actuation
- solution mass per dose (actuation), average of five doses [3]: 5.01 mg

Substance: adalimumab
- change in electrophoretic mobility (molecular weight) of post-aerosol active agent vs control [4]: negligible change
